From US20160220466A1, “HAIR TREATMENT COMPOSITION” (Lonza Ltd., priority 2015, published 2016)

Columns and labels:
[1] = test system: level 9 bleached light brown hair; assay: Differential Scanning Calorimetry of treated hair tress (denaturation temperature); settings: 1.5% compound in water, pH4.5; tress soaked at 35° C. for 10 minutes, dried; DSC 90-180° C. at 4° C. per minute
Method: A 2.5 g tress of level 9 bleached light brown hair was treated with the aforementioned composition as follows.
a) Soaked the tress in 25 ml solution of the composition at 35° C. for 10 minutes
b) Excess liquor was squeezed off
c) Dry the hair tress using a hair drier.
The hair tress was then evaluated by Differential Scanning Calorimetry (Perkin Elmer DSC6000). Samples (˜5 mg) were cut and placed into a stainless steel pan and 50 microlitres deionised Water was added before sealing. The heating profile was between 90-180° C. at 4° C. per minute.

[2] = test system: level 9 bleached light brown hair; assay: Fourier Transform Infrared Spectroscopy (FTIR, UATR) of treated hair tress; settings: 1.5% compound in water, pH4.5; tress soaked at 35° C. for 10 minutes, dried; same tresses as DSC
Method: (§1) The same hair tresses were also analysed by Fourier Transform Infrared Spectroscopy (FTIR) (Perkin Elmer Frontier) using an UATR attachment. […] For example, in the FTIR spectra, the peaks at 1853 cm^−1 and 1547 cm^−1 are peaks which are neither present in the AADEG itself or the untreated hair, and conversely peaks at 1888 cm^−1 and 1164 cm^−1 are present in the untreated hair, but not in the treated hair.
as §1, with “1713” for “1853”, “1481” for “1547”, “1351” for “1888”, “1303” for “1164”

CC(=O)CC(=O)OCCOCCOC(=O)CC(C)=O [Acetoacetylated Diethylene Glycol]
denaturation temperature (Td) of treated hair compared to hair treated with water alone [1]: significant increase
2nd derivative FTIR spectra of treated hair compared to untreated samples [2]: a number of new bonds

CC(=O)CC(=O)OCCOCCOCCOC(=O)CC(C)=O [Acetoacetylated Triethylene Glycol]
denaturation temperature (Td) of treated hair compared to hair treated with water alone [1]: significant increase

CC(=O)CC(=O)OCCOC(=O)CC(C)=O [Acetoacetylated Ethylene Glycol]
denaturation temperature (Td) of treated hair compared to hair treated with water alone [1]: significant increase
2nd derivative FTIR spectra of treated hair compared to untreated samples [2]: a number of new bonds
